IC50, Activity and inhibition data for 10 compounds are collected here from ChEMBL document CHEMBL3098018, “Synthesis of licochalcone analogues with increased anti-inflammatory activity” (Bioorg Med Chem Lett, 2014).

In series [1] the test system is RAW264.7. As to the kind of experiment: Antiinflammatory activity in mouse RAW264.7 cells assessed as inhibition of LPS-stimulated nitric oxide production after 18 hrs by Griess assay. Format: functional, cell-based. To be noted: RAW264.7, 18 h.
The test system of series [2] is RAW264.7. As to the kind of experiment: Cytotoxicity against mouse RAW264.7 cells assessed as cell viability at 20 uM after 24 hrs by MTS assay. To be noted: raw264.7, 24 h. A general note: Tetrazolium dyes change colour on reduction, which living cells bring about.
The test system of series [3] is RAW264.7. As to the kind of experiment: Cytotoxicity against mouse RAW264.7 cells assessed as cell viability at 20 uM after 24 hrs by MTS assay. Format: cell-based. The conditions noted are these: raw264.7, 24 h.
Series [4] deals with RAW264.7. As to the kind of experiment: Antiinflammatory activity in mouse RAW264.7 cells assessed as inhibition of LPS-stimulated nitric oxide production at 2 uM after 18 hrs by Griess assay relative to control. It is filed as functional. The conditions noted are these: RAW264.7, 18 h. For orientation: The Griess reaction detects nitrite, a stable product of nitric oxide.
Series [5] can be described thus: Antiinflammatory activity in RBL2H3 cells assessed as inhibition of degranulation. It is filed as functional, cell-based. The conditions noted are these: Rattus norvegicus, RBL-2H3.
Series [6] concerns RAW264.7. The experiment in a line: Antiinflammatory activity in mouse RAW264.7 cells assessed as inhibition of LPS-stimulated nitric oxide production at 20 uM after 18 hrs by Griess assay relative to control. It is filed as functional. The conditions noted are these: RAW264.7, 18 h.

Structures are written as SMILES. pIC50: −log10 of the molar value.

`COc1c(/C=C/C(=O)c2ccc(O)c(CC=C(C)C)c2)ccc(O)c1O` [LICOCHALCONE D]: the pIC50 in the series with RAW264.7 [1] is 5.31; in series [5] it was 4.68. For the same compound, the Activity entry in the series with RAW264.7 [2] and with RAW264.7 [3] was “Toxic” throughout. Further, in the series with RAW264.7 [4], the inhibition at 2 µM was 57.8%. Further, the inhibition at 20 µM in the series with RAW264.7 [6] stood at 95.4%.
Turning to `C=C(C)C(C)c1cc(C(=O)/C=C/c2ccc(O)c(O)c2OC)ccc1O` (stereo not drawn), in the series with RAW264.7 [1], the pIC50 was 5.31. In addition, the Activity entry in the series with RAW264.7 [2] and with RAW264.7 [3] was “Toxic” throughout. Besides, the inhibition at 2 µM in the series on RAW264.7 [4] came to 56.5%. In addition, in the series with RAW264.7 [6], the inhibition at 20 µM worked out at 94.3%.
In the case of `COc1c(/C=C/C(=O)c2ccc(O)cc2O)ccc(O)c1O`, the pIC50 in the series on RAW264.7 [1] is 5.33. In the series with RAW264.7 [3], the Activity entry is given as “Non-toxic”. For the same compound, the inhibition at 2 µM with RAW264.7 [4] worked out at 71.1%. In the series with RAW264.7 [6], the inhibition at 20 µM worked out at 96.5%.
For `COc1c(/C=C/C(=O)c2ccc(O)c(O)c2)ccc(O)c1O`, in that order: 5.00, “Non-toxic”, -6% and 92.5%.
`C=CC(C)(C)c1cc(C(=O)/C=C/c2ccc(O)c(O)c2OC)ccc1O`: in the series with RAW264.7 [1], the negative-log IC50 (pIC50) is 5.63. For the same compound, the Activity result with RAW264.7 [2] and in the series on RAW264.7 [3] was “Toxic” in each case. For the same compound, the inhibition at 2 µM in the series with RAW264.7 [4] was found to be 75.9%. The inhibition at 20 µM in the series with RAW264.7 [6] was determined as 96.1%.
As to `COc1c(/C=C/C(=O)c2ccc(O)cc2)ccc(O)c1O`, the values for the pIC50 (in the series on RAW264.7 [1]; in series [5]) were 5.00 and under 4.52, respectively. The Activity entry in the series on RAW264.7 [3] was “Non-toxic”. Also, the inhibition at 2 µM in the series with RAW264.7 [4] came to 17.2%. The inhibition at 20 µM in the series on RAW264.7 [6] was found to be 69.6%.
With `O=C(/C=C/c1ccc(O)cc1)c1ccc(O)cc1O` [ISOLIQUIRITIGENIN], the pIC50 in series [5] is under 4.52.
On the same count and under the same terms, the result for `COc1cc(O)ccc1/C=C/C(=O)c1ccc(O)cc1` [ECHINATIN] reads under 4.52.
Still for that read-out and setting: the same measure for `COc1c(/C=C/C(=O)c2ccc(O)cc2)ccc(O)c1CC=C(C)C`: 4.62.
The same measure, in the same setting: the result for `C=CC(C)(C)c1cc(/C=C/C(=O)c2ccc(O)cc2)c(OC)cc1O` [LICOAGROCHACONE A] reads 4.77.

For orientation: pIC50 means the IC50 on a negative log10 scale, so that one unit is a factor of ten. What is called inhibition is the relative decrease from the control value, in per cent.
